Target: Protein-arginine deiminase type-4 (Homo sapiens, UniProt Q9UM07)
Assay: RFMS Human PAD4 Functional Assay 1
Protocol: Reaction volume: 26 μlAssay buffer: 25 mM hepes, pH 7.5, 5 mM NaCl, 1 mM DTT, 0.2 mg/ml BSA, 0.01% CHAPS, 50 μM Calcium, and 5 μM TPENFinal concentrations: 5 nM hPAD4 enzyme, 250 μM BASE, and 0.5% DMSOTotal incubation time: 30 mins compound and enzyme preincubation at 37° C., 90 min enzyme/substrate reaction, 30 min reaction with phenyl glyoxal at 37° C.Stop solution: 40 μl 5% TCA in ACN0.13 μL of compound solution was added to 13 μL of 10 nM PAD4 in assay buffer. After 30 min 13 μl of 500 μM of BAEE was added in 25 mM hepes, pH 7.5, 5 mM NaCl, 1 mM DTT, 0.2 mg/ml BSA, 0.01% CHAPS, 50 μM Calcium, 5 μM TPEN was added and the reaction incubated for 90 min at 37° C. The enzymatic reaction was quenched by addition of 15 μl of 6.1N TCA, 100% Final Concentration is 20%, 35 μl of 8.5 mM phenyl glyoxal (final concentration 4 mM) is then added and the reaction is incubated for 30 min at 37° C.After 30 minutes the plates are spun down to remove all precipitate. The enzyme reaction was quenched with an equal volume of methanol containing internal standard (modified citrulline). Samples were loaded onto the Rapid Fire RF300 system (Agilent) wherein they were first sipped for 1000 ms and then directly loaded to a C18 separations cartridge using a mixture of acetonitrile containing 0.01% formic acid for 3000 ms desalting. The flow rate of the mobile phase was 1.5 ml/min. Once the samples were eluted from the cartridge, a mobile phase of acetonitrile containing 0.01% formic acid was used to move the samples into the mass spectrometer for 4000 ms at a flow rate of 1.25 ml/min/Sciex API5500 triple quadrupole mass spectrometer (Applied Biosystems) equipped with ESI was used to analyze the peptidyl citrulline and internal standard ions.

Protein-arginine deiminase type-4, sequence (Q9UM07 whole entry): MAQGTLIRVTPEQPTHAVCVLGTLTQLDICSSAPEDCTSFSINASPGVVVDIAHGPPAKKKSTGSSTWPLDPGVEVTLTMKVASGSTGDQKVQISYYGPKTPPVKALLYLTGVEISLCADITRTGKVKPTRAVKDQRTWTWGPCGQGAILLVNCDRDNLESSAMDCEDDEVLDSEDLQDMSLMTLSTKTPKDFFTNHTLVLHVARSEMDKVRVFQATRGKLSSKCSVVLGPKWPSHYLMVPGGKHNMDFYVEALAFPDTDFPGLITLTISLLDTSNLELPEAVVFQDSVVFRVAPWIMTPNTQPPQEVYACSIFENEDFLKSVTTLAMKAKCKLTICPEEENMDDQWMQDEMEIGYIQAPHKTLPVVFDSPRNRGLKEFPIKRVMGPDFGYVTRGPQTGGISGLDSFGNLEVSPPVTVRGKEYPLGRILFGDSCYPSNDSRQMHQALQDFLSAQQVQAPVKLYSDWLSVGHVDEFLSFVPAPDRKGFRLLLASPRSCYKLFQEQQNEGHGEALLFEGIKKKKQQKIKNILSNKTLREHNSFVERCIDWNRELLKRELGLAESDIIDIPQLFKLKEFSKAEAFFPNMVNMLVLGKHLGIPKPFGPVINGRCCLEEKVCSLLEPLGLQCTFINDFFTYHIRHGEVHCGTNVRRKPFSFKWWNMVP

Row | Structure (SMILES) | IC50 [nM]
1 | COc1cc(C(=O)N2CCC[C@@H](N)C2)cn2nc(-c3cc4ccc(-c5cc(F)c(C(N)=O)cc5C)nc4n3CC3CC3)c(C)c12 [US12473304, Example 208] | 140
2 | COc1cc(C(=O)N2C[C@H](N)C[C@@H](F)C2)cn2nc(-c3cc4ccc(-c5cc(F)c(C(N)=O)cc5C)nc4n3CC3CC3)c(C)c12 [US12473304, Example 207] | 150
3 | COc1cc(C(=O)N2C[C@H](N)C[C@@H](F)C2)cn2nc(-c3cc4ccc(Cl)nc4n3CC3CC3)c(C)c12 [US12473304, Example 15] | 526

These reach a lower IC50. Values come first.

Row | IC50 [nM] | Structure (SMILES)
4 | 55 | Cc1c(-c2cc3ccc(-c4ccc5c(c4)CNC5=O)nc3n2CC2CC2)nn2cc(C(=O)N3CC4CCC3[C@@H]4N)ccc12 (stereo not given in full) [US12473304, Example 64]
5 | 30 | COc1cc(C(=O)N2CC3CCC2[C@@H]3N)cn2nc(-c3cc4ccc(C(C)(C)O)cc4n3CC3CC3)c(C)c12 (stereo not given in full) [US12473304, Example 97]

Source: BindingDB's records for patent US12473304 (Bristol-Myers Squibb, 2025)
